# Data as given in patent US5424395A (priority 1992, dated 1995).
# “Also recorded” adds a separate entry of the source. Where no end group is shown, it is not given here.
# Key:
# [1] = extracellular fluid (ECF) from tobacco leaf in 50 mM Tris, pH 7.4; details: 37° C., up to one hour
# [2] = tested on: extracellular plant proteases; experiment: Resistance to proteolytic degradation by leaf extracellular fluid (ECF), HPLC; format: in vitro ADME, tobacco; details: 2.5% (v/v) ECF, 50 mM Tris pH 7.4, 37° C., one hour, relative to area of parent peak with no added ECF
# Description: To determine the sensitivity of AMPPPs to extracellular proteases, and to determine the site of processing by these proteases, a system was designed to obtain extracellular fluid from leaves of maize, tobacco, and potato and to use these to test the stability of AMPPPs.
# Extracellular fluid (ECF) was obtained in accordance with Z. Klement, "Method Of Obtaining Fluid From the Intercellular Space of Foliage and the Fluid's Merit As Substrate For Phytobacterial Pathogens," supra by cutting interveinal pieces from tobacco leaf after they were rinsed in deionized water. The segments were submerged in water in a vacuum desiccator and vacuum was applied for five to 10 minutes. The vacuum was released slowly, the leaves were blotted dry and four to five pieces were rolled and placed in a 50 mL disposable syringe barrel cut down so as to be able to fit in a swinging bucket centrifuge rotor. The syringe barrel was placed in a 50 mL screw cap conical centrifuge tube and centrifuged in a swinging bucket rotor at 500×g for 30 minutes. […]
# Peptides were analyzed by reverse phase chromatography on a 4.6 mm×250 mm Vydac C-4 protein column (Nest Group, Southboro, Mass.) using a 0% to 60% acetonitrile gradient in 0.1% TFA in 30 minutes on a Hewlett-Packard HP1090 high pressure liquid chromatograph (Hewlett-Packard, Avondale, Pa.). […] These peptides were purified and analyzed by FAB-MS and amino acid analysis. […]
# [3] = tested on: Erwinia carotovora carotovora strain SR319 (Ecc SR319); experiment: Antibacterial bioassay, minimum complete inhibitory concentration (MCIC); format: cell-based; details: for activity against Ecc SR319 (in words): even at concentrations higher than 150 micrograms AMPPP/mL; for MEAN MCIC VALUE: lowest peptide concentration with no bacterial growth, after 20 hours, Luria broth, 28° C., mean of at least three replicate experiments
# Method: Erwinia carotovora carotovora strain SR319 (Ecc SR319) (a gift of Dr. C. H. Liao, USDA-ARS, Philadelphia, Pa.) was streaked on a plate of LB agar and grown overnight at 28° C. After 24 hours, a loopful of Ecc SR319 was picked from the agar plate and was added to 3 mL of Luria broth (10 g Bacto-tryptone, 5 g Bacto-yeast extract, and 10 g sodium chloride per liter of solution; autoclaved sterile) in a capped, sterile 10 mL test tube. This culture was grown overnight before its optical density at 630 nm was recorded using a Dynatech MR600 microplate reader (Dynatech Laboratories, Inc., Alexandria, Va.). A portion of the overnight culture was adjusted with Luria broth to obtain a culture with an optical density at 630 nm of 0.2. About 250 microliters of this culture was added to 2250 microliters of Luria broth in a capped, sterile 10 mL test tube before this diluted culture was grown for 3 hours at 28° C. in a shaking incubator. The optical density at 630 nm of the freshly grown culture was recorded and a portion of this mid-logarithmic growth phase culture was diluted 1000-fold with Luria broth to an approximate concentration of about 10^5 colony forming units per mL of culture. About 85 microliters of this diluted culture was added to 12 wells in a 96 well microtiter plate for each AMPPP to be tested, with 1-4 replicate sets of 12 wells prepared for each AMPPP within a single experiment. Stock solutions of each AMPPP were prepared at a concentration of 1 mg/mL and 0-15 microliters of each peptide stock solution were added to a single well in the microtiter plate followed by a sufficient volume of water to bring the total well volume to 100 microliters. Typical peptide volumes assayed were 0, 1, 2, 3, 4, 5, 6, 7, 8, 9, 10 and 15 microliters, which corresponds to a final peptide concentration in the range of 0-150 micrograms/mL. The microtiter plates were sealed with parafilm and incubated on a shaking platform at 28° C. for 44 hours. The optical density of each Ecc SR319 culture well was recorded at 20 hours and then at 44 hours. A minimum complete inhibitory concentration (MCIC) was then determined for each replicate set of varying peptide concentrations for each AMPPP whereby the MCIC is defined as the lowest peptide concentration at which no bacterial growth was observed. Table I lists mean MCIC values computed after 20 hours of treatment from at least three replicate experiments with each AMPPP. "Met(S)(O)" and "Met(R)(O)" refer to the diastereomeric forms of a methionine sulfoxide residue.
# Although most of the AMPPP compounds listed in Table I were greater than 95% homogeneous following reverse phase HPLC purification, AMPPPs #24-26 and #28 were only 50-80% pure following partial purification and salt exchange by ion exchange chromatography.
# P3 Fusarium [4] = experiment: Antifungal bioassay (spore germination MCIC); format: cell-based, P3 Fusarium (field isolate); details: lowest concentration with no spore germination, after 24 hours
# Method: (§1) Fungi are grown on an appropriate medium, in this case a potato dextrose agar plate, for several weeks. At the end of that period, the plate was flooded with about 5 mL of sterile distilled water to harvest spores. The spore concentration was determined by use of a hemocytometer and the spore suspension was stored in a sterile tube at 4° C. until it was needed. Then 82 microliters of potato dextrose broth and 3 microliters of spore suspension (ranging from 10^5 to 10^7 spores total) was then added to 12 wells in a 96 well microtiter plate for each AMPPP to be tested, with 1-4 replicate sets of 12 wells prepared for each AMPPP within a single experiment. […] The amount of spore germination and fungal growth was recorded as a qualitative measurement at each observation time using a system of pluses and minuses: [-] meant no germination having occurred, [+] meant swollen spores with an extended germ tube, [++] meant the beginnings of mycelial growth with the overall appearance of a loose lattice, and [+++] meant a dense mycelial growth with the overall appearance of a thick opaque meshwork. The MCIC value for each AMPPP tested was then recorded, where the MCIC value is defined as the lowest peptide concentration at which no spore germination occurred (rating=[-]). […]
# Trichoderma reesei = experiment: Antifungal bioassay (spore germination MCIC); format: cell-based; details: lowest concentration with no spore germination, after 24 hours
# Method: as §1
# P3 Fusarium [5] = experiment: Effect of ECF or spent media on antifungal activity of AMPPPs; format: cell-based; details: ECF source Tobacco Leaf, 10% (v/v); comparison of MCIC with and without ECF
# Description: It is critical to understand the effect of plant proteolytic enzymes on AMPPP activity because any AMPPP applied to crop plants will be in contact with plant tissues and any associated plant proteases. It is important to assess the bioactivity of an AMPPP which may be cleaved by one or more plant proteases as well as to recognize that such an event has occurred. An extract of extracellular fluid (ECF) as described in Example 14 is a useful reagent in determining such loss of antimicrobial activity of AMPPPs due to exposure to plant proteases in the extracellular compartment of plant tissues. Bioassay experiments were conducted with 300-1000 pregerminated P3 Fusarium spores essentially as described in Example 13 for various AMPPPs exposed to ECF from several crop species, or exposed to spent media collected as a supernatant from centrifuged three-day-old P3 Fusarium cultures grown in potato dextrose broth (PDB), corn stalk medium (CSM), or water as detailed below. The only major difference in the bioassay method used from that described in Example 13 was that the bioassay was conducted in a total culture volume of 10 microliters rather than 100 microliters. ECF was present in these bioassays at a final concentration of 10% (v/v) and was added concurrently with an AMPPP to the Fusarium spores at various AMPPP concentrations. […]
substance,measurement,setting,value
GIGKFLKSAKKFGKAFVGEIMNS-OH,cleaved bond,[1],Lys7-Ser8
GIGKFLRSAKKFGKAFVGEIMNS-OH,cleaved bond,[1],Arg7-Ser8
"GIGKFLHSAKKFGKAFVGEIMNS [AMPPP 1, Magainin 2-OH]",Total Area Under Chromatogram Peaks: Fragment Gly^1 Xaa^7,[2],15.2%
same,remaining at 1 h,"[2]; cerebrospinal or other body fluid, read-out: Total Area Under Chromatogram Peaks: Parent AMPPP",54.4%
[Met^21 (R)(O)]Mag 2-OH [AMPPP 7],activity against Ecc SR319 (in words),[3],not active
same,MEAN MCIC VALUE,[3],> 150 micrograms/mL
same,Mean MCIC Values against: P3 Fusarium (10^7 spores),P3 Fusarium [4],50 micrograms/mL
same,Mean MCIC Values against: Trichoderma reesei (10^6 spores),Trichoderma reesei,75 micrograms/mL
GIGKFLHEAKKFGKAFVGEIMNS-OH,cleaved bond,[1],His7-Glu8
GIGKFLHTAKKFGKAFVGEIMNS-OH,cleaved bond,[1],His7-Thr8
[Met^21 (S)(O)Mag 2-OH [AMPPP 6],activity against Ecc SR319 (in words),[3],not active
same,MEAN MCIC VALUE,[3],> 150 micrograms/mL
same,Mean MCIC Values against: P3 Fusarium (10^7 spores),P3 Fusarium [4],40 micrograms/mL
same,Mean MCIC Values against: Trichoderma reesei (10^6 spores),Trichoderma reesei,75 micrograms/mL
same,Approximate % Reduction in Antifungal Activity by ECF,P3 Fusarium [5],50%
GIGKFLFSAKKFGKAFVGEIMNS-OH,cleaved bond,[1],Phe7-Ser8
GIGKFLHSAKKFGKAFVGEIMNS-OH,cleaved bond,[1],His7-Ser8; also recorded: Met21-Asn22
GIGKFLHSAGKFGKAFVGEIMKS-OH,cleaved bond,[1],His7-Ser8
GIGKFLHAAKKFGKAFVGEIMNS-OH,cleaved bond,[1],His7-Ala8
